Experimental findings from US8772490B2, “Optically active diazabicyclooctane derivatives and process for preparing the same” (Meiji Seika Pharma Co., Ltd., priority 2010, dated 2014) are described below.

The target in experiment [1] is AmpC β-lactamase (Pseudomonas aeruginosa (strain ATCC 15692 / DSM 22644 / CIP 104116 / JCM 14847 / LMG 12228 / 1C / PRS 101 / PAO1), UniProt P24735). It counts as biochemical. On the procedure: The biological activity of the above-mentioned compounds represented by formulae (H) and (s) can be measured as follows. […] Further, using constitutive AmpC producing Pseudomonas aeruginosa, a combined antimicrobial activity (MIC) was measured when using Piperacillin (PIPC) as an antibiotic and the compound of formula (H) or (s) in combination to check whether or not the antimicrobial activity of PIPC could be restored.
Using P. aeruginosa PAO1 genome as a template, a DNA for encoding an AmpC β-lactamase domain excluding a signal peptide was amplified with PCR. This PCR product was incorporated into pET-28b(+)vector (Merck), introduced into E. coli BL21 (Merck), and, under induction of 1 mM isopropyl-β-D-(−)-thiogalactopyranoside (Nacalai Tesque), cultured overnight at 20° C. to express AmpC. After the bacterial cell was collected. AmpC was purified from the cell extract obtained by ultrasonic treatment, using CM Sepharose Fast Flow (GE Healthcare) and HiTrap Heparin HP (GE Healthcare) at 4° C.

Experiment [2] relates to P. aeruginosa PAO1 variant, which constitutively expresses AmpC. In words: Combinatorial antibacterial activity: MIC of piperacillin (PIPC) with test compound, agar plate dilution. The conditions noted are these: for MIC (antimicrobial activity of Piperacillin (PIPC) in combination with the compound): Table 7, PIPC in combination with 4 μg/mL of the compound. In kind it is cell-based, Pseudomonas aeruginosa. On the procedure: The biological activity of the above-mentioned compounds represented by formulae (H) and (s) can be measured as follows. Specifically, an enzyme inhibitory activity (IC50 value) against AmpC enzyme which is a class C β-lactamase was determined using nitrocephin as a substrate to check whether or not the compounds had the inhibitory activity and compare the activities of them. Further, using constitutive AmpC producing Pseudomonas aeruginosa, a combined antimicrobial activity (MIC) was measured when using Piperacillin (PIPC) as an antibiotic and the compound of formula (H) or (s) in combination to check whether or not the antimicrobial activity of PIPC could be restored.
The combinatorial effect of the test compound with a β-lactam agent against bacteria was evaluated using AmpC constitutive expression strain selected from P. aeruginosa PAO1 through agent exposure. Using piperacillin (PIPC, Sigma-Aldrich) as a β-lactam agent, measurement was conducted by agar plate dilution process in which minimal inhibitory concentration (MIC) of PIPC is based on Clinical and Laboratory Standards Institute (CLSI process). That is, an agara plate containing 4 μg/mL (final concentration) of test compound and PIPC at each concentration in Mueller-Hinton agar (Becton, Dickinson and Company) was made, and bacteria cultured overnight in cation-adjusted Muller-Hinton broth (Becton, Dickinson and Company) were adjusted in the same medium so as to have 10^4 CFU/spot and inoculated on a plate containing an agent. This plate containing an agent was cultured overnight at 35° C., and the minimum agent concentration in which no growth of bacteria is observed was determined to be MIC.

Sequence of AmpC β-lactamase (P24735 27-397): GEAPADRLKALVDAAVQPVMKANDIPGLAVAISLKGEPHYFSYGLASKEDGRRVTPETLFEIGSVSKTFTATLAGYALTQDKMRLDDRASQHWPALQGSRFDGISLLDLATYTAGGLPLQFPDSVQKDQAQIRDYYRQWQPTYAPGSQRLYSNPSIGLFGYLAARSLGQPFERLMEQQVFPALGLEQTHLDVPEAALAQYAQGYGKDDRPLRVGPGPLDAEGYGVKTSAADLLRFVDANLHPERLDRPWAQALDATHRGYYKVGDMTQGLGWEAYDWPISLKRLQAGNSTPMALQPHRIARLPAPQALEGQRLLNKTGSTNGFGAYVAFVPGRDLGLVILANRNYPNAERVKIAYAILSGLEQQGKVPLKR

Turning to `NC(=O)[C@H]1CC[C@H]2CN1C(=O)N2OS(=O)(=O)[O-].[Na+]` [Example 24, (2R,5S)-1,6-Diazabicyclo[3.2.1]octane-2-carboxamide, 7-oxo-6-(sulfoxy)-monosodium salt], in experiment [1], the “β-lactamase enzyme inhibitory activity (in words)” value is on record as “exhibited no activity”. In experiment [2], the “effect of the compound in combination with an antibiotic (in words)” value is “exhibited no activity” and the “MIC (antimicrobial activity of Piperacillin (PIPC) in combination with the compound)” value (shortened to “MIC”) was determined as 64 µg/mL.

For `C[C@]1(Cn2ccnn2)[C@H](C(=O)[O-])N2C(=O)C[C@H]2S1(=O)=O.[Na+]` [TAZ, Tazobactam, reference compound], in experiment [2], the “MIC” value was 64 µg/mL.

As to `NC(=O)[C@@H]1CC[C@@H]2CN1C(=O)N2OS(=O)(=O)[O-].[Na+]` [Example 23, (2S,5R)-1,6-Diazabicyclo[3.2.1]octane-2-carboxamide, 7-oxo-6-(sulfoxy)-monosodium salt], the “β-lactamase enzyme inhibitory activity (in words)” value in experiment [1] was “exhibited the activities”. For the same compound, in experiment [2], the “effect of the compound in combination with an antibiotic (in words)” value is given as “exhibited the activities” and the “MIC” value came to 4 µg/mL.
